Assay: xn = mol fraction of the nth substance listed
Details: 101.3 kPa, Liquid; for mass density: Pycnometric method

CCCCCCCCCCCCCCCC [hexadecane] + CCCCCC
Details | mass density [kg/m3] | speed of sound [m/s]
293.15 K, x2 = 0.1 | 768.1 | 1341
293.15 K, x2 = 0.2 | 762.36 | 1327
293.15 K, x2 = 0.3 | 756.02 | 1314
293.15 K, x2 = 0.4 | 748.67 | 1297
293.15 K, x2 = 0.5 | 740.14 | 1277
293.15 K, x2 = 0.6 | 729.79 | 1254
293.15 K, x2 = 0.7 | 717.46 | 1228
293.15 K, x2 = 0.8 | 702.3 | 1196
293.15 K, x2 = 0.9 | 683.23 | 1151
298.15 K, x2 = 0.1 | 764.7 | 1322
298.15 K, x2 = 0.2 | 758.88 | 1308
298.15 K, x2 = 0.3 | 752.56 | 1295
298.15 K, x2 = 0.4 | 745.03 | 1277
298.15 K, x2 = 0.5 | 736.52 | 1257
298.15 K, x2 = 0.6 | 726.08 | 1234
298.15 K, x2 = 0.7 | 713.68 | 1207
298.15 K, x2 = 0.8 | 698.4 | 1175
298.15 K, x2 = 0.9 | 679.04 | 1129
303.15 K, x2 = 0.1 | 761.25 | 1304
303.15 K, x2 = 0.2 | 755.4 | 1289
303.15 K, x2 = 0.3 | 749.09 | 1275
303.15 K, x2 = 0.4 | 741.49 | 1258
303.15 K, x2 = 0.5 | 732.9 | 1237
303.15 K, x2 = 0.6 | 722.32 | 1215
303.15 K, x2 = 0.7 | 709.86 | 1187
303.15 K, x2 = 0.8 | 694.47 | 1154
303.15 K, x2 = 0.9 | 674.8 | 1108
308.15 K, x2 = 0.1 | 757.78 | 1285
308.15 K, x2 = 0.2 | 751.9 | 1270
308.15 K, x2 = 0.3 | 745.61 | 1256
308.15 K, x2 = 0.4 | 737.93 | 1238
308.15 K, x2 = 0.5 | 729.25 | 1217
308.15 K, x2 = 0.6 | 718.63 | 1195
308.15 K, x2 = 0.7 | 706.03 | 1167
308.15 K, x2 = 0.8 | 690.5 | 1133
308.15 K, x2 = 0.9 | 670.53 | 1086
313.15 K, x2 = 0.1 | 754.31 | 1266
313.15 K, x2 = 0.2 | 748.41 | 1251
313.15 K, x2 = 0.3 | 741.92 | 1237
313.15 K, x2 = 0.4 | 734.37 | 1219
313.15 K, x2 = 0.5 | 725.59 | 1198
313.15 K, x2 = 0.6 | 714.88 | 1175
313.15 K, x2 = 0.7 | 702.18 | 1146
313.15 K, x2 = 0.8 | 686.49 | 1112
313.15 K, x2 = 0.9 | 666.22 | 1065
318.15 K, x2 = 0.1 | 750.84 | 1248
318.15 K, x2 = 0.2 | 744.91 | 1232
318.15 K, x2 = 0.3 | 738.42 | 1219
318.15 K, x2 = 0.4 | 730.8 | 1200
318.15 K, x2 = 0.5 | 721.92 | 1178
318.15 K, x2 = 0.6 | 711.12 | 1156
318.15 K, x2 = 0.7 | 698.3 | 1126
318.15 K, x2 = 0.8 | 682.45 | 1091
318.15 K, x2 = 0.9 | 661.87 | 1044
323.15 K, x2 = 0.1 | 747.36 | 1230
323.15 K, x2 = 0.2 | 741.4 | 1214
323.15 K, x2 = 0.3 | 734.92 | 1200
323.15 K, x2 = 0.4 | 727.21 | 1181
323.15 K, x2 = 0.5 | 718.23 | 1159
323.15 K, x2 = 0.6 | 707.34 | 1136
323.15 K, x2 = 0.7 | 694.38 | 1107
323.15 K, x2 = 0.8 | 678.36 | 1071
323.15 K, x2 = 0.9 | 657.47 | 1023
328.15 K, x2 = 0.1 | 743.88 | 1211
328.15 K, x2 = 0.2 | 737.89 | 1196
328.15 K, x2 = 0.3 | 731.41 | 1182
328.15 K, x2 = 0.4 | 723.62 | 1163
328.15 K, x2 = 0.5 | 714.52 | 1140
328.15 K, x2 = 0.6 | 703.55 | 1117
328.15 K, x2 = 0.7 | 690.44 | 1087
328.15 K, x2 = 0.8 | 674.25 | 1050
328.15 K, x2 = 0.9 | 653.04 | 1002
333.15 K, x2 = 0.1 | 740.37 | 1193
333.15 K, x2 = 0.2 | 734.36 | 1177
333.15 K, x2 = 0.3 | 727.88 | 1163
333.15 K, x2 = 0.4 | 720.01 | 1144
333.15 K, x2 = 0.5 | 710.8 | 1122
333.15 K, x2 = 0.6 | 699.74 | 1098
333.15 K, x2 = 0.7 | 686.47 | 1067
333.15 K, x2 = 0.8 | 670.09 | 1030
333.15 K, x2 = 0.9 | 648.56 | 981
338.15 K, x2 = 0.1 | – | 1176
338.15 K, x2 = 0.2 | – | 1160
338.15 K, x2 = 0.3 | – | 1145
338.15 K, x2 = 0.4 | – | 1126
338.15 K, x2 = 0.5 | – | 1103
338.15 K, x2 = 0.6 | – | 1079
338.15 K, x2 = 0.7 | – | 1048
338.15 K, x2 = 0.8 | – | 1010
338.15 K, x2 = 0.9 | – | 960
343.15 K, x2 = 0.1 | – | 1158
343.15 K, x2 = 0.2 | – | 1142
343.15 K, x2 = 0.3 | – | 1127
343.15 K, x2 = 0.4 | – | 1108
343.15 K, x2 = 0.5 | – | 1084
343.15 K, x2 = 0.6 | – | 1060
343.15 K, x2 = 0.7 | – | 1029
343.15 K, x2 = 0.8 | – | 990
343.15 K, x2 = 0.9 | – | 939
348.15 K, x2 = 0.1 | – | 1140
348.15 K, x2 = 0.2 | – | 1124
348.15 K, x2 = 0.3 | – | 1109
348.15 K, x2 = 0.4 | – | 1089
348.15 K, x2 = 0.5 | – | 1066
348.15 K, x2 = 0.6 | – | 1042
348.15 K, x2 = 0.7 | – | 1010
348.15 K, x2 = 0.8 | – | 971
348.15 K, x2 = 0.9 | – | 918
353.15 K, x2 = 0.1 | – | 1123
353.15 K, x2 = 0.2 | – | 1106
353.15 K, x2 = 0.3 | – | 1092
353.15 K, x2 = 0.4 | – | 1072
353.15 K, x2 = 0.5 | – | 1048
353.15 K, x2 = 0.6 | – | 1023
353.15 K, x2 = 0.7 | – | 991
353.15 K, x2 = 0.8 | – | 951
353.15 K, x2 = 0.9 | – | 898
358.15 K, x2 = 0.1 | – | 1106
358.15 K, x2 = 0.2 | – | 1089
358.15 K, x2 = 0.3 | – | 1074
358.15 K, x2 = 0.4 | – | 1054
358.15 K, x2 = 0.5 | – | 1030
358.15 K, x2 = 0.6 | – | 1005
358.15 K, x2 = 0.7 | – | 972
358.15 K, x2 = 0.8 | – | 932
358.15 K, x2 = 0.9 | – | 877
363.15 K, x2 = 0.1 | – | 1088
363.15 K, x2 = 0.2 | – | 1071
363.15 K, x2 = 0.3 | – | 1057
363.15 K, x2 = 0.4 | – | 1036
363.15 K, x2 = 0.5 | – | 1012
363.15 K, x2 = 0.6 | – | 986
363.15 K, x2 = 0.7 | – | 953
363.15 K, x2 = 0.8 | – | 912
363.15 K, x2 = 0.9 | – | 857
368.15 K, x2 = 0.1 | – | 1072
368.15 K, x2 = 0.2 | – | 1054
368.15 K, x2 = 0.3 | – | 1039
368.15 K, x2 = 0.4 | – | 1019
368.15 K, x2 = 0.5 | – | 995
368.15 K, x2 = 0.6 | – | 968
368.15 K, x2 = 0.7 | – | 935
368.15 K, x2 = 0.8 | – | 893
368.15 K, x2 = 0.9 | – | 837
373.15 K, x2 = 0.1 | – | 1055
373.15 K, x2 = 0.2 | – | 1037
373.15 K, x2 = 0.3 | – | 1022
373.15 K, x2 = 0.4 | – | 1002
373.15 K, x2 = 0.5 | – | 977
373.15 K, x2 = 0.6 | – | 950
373.15 K, x2 = 0.7 | – | 916
373.15 K, x2 = 0.8 | – | 874
373.15 K, x2 = 0.9 | – | 816
